Data taken from a melting point compilation (Tetko et al.; mined from patent text by program, amines drawn as free bases though some values may be those of a salt).

Compound | melting point [°C]
COC(=O)C(C)(C)CCCOc1cc(C)c(N2C(=O)c3ccccc3C2=O)cc1C | 109 to 111
Sc1nc(CCCc2cc(Cl)cc(Cl)c2)c[nH]1 | 98 to 99
COc1ccc2c(-c3ccccc3)c([N+](=O)[O-])oc2c1 | 100 to 106
Cc1nnc(-c2ccc3occ(-c4ccc(S(C)=O)c(OC(F)(F)F)c4)c3c2)o1 (configuration not stated) | 182 to 183
CCCc1c(Cc2ccc(-c3ccccc3-c3nnn[nH]3)cc2)c(O)nc2ccnn12 | 260
CCOC(=O)c1cc(SC#N)c(Br)cc1N | 149 to 150
COc1ccc2c(c1)CCN1C[C@H]3CCCN[C@H]3C[C@@H]21 | 125 to 127
N#Cc1ccc(C(=O)c2ccc(S)cc2)cc1 | 156
NC(=S)NC(=O)c1ccccc1 | 170 to 171
CCOC(=O)C1=C(N)NC(N)=C(C(=O)OCC)C1c1cccc(C(=O)OCC)c1 | 191
Clc1cc(Nc2nccc(-c3ccc(N4CCNCC4)nc3)n2)cc(Cl)c1Cl | 208 to 211
c1cc2c(cc1N1CCNCC1)OCCO2 | 138
CCC1C(C)=NN=C(c2ccc(O)c(OC)c2)c2cc(OC)c(O)cc21 (configuration not stated) | 210 to 212
O=c1ccn([C@H]2C=C[C@@H](O)C2)c(=O)[nH]1 (racemic) | 163 to 164
CC1CC(=O)C=C2C=CC3C4CCC(=O)C4(C)CCC3C21C (configuration not stated) | 171
COc1ccc2c(c1)OCC1CN(C(=O)c3cccnc3)N=C21 (configuration not stated) | 145 to 147
O=C(Cl)c1cc2ccccc2oc1=O | 138 to 141

Compound | melting point [°C]
O=[N+]([O-])c1ccc2oc(-c3ccco3)nc2c1 | 175 to 177
CCn1cc(C(=O)Nc2cc(Oc3ccc4nc(NC(=O)C5CC5)cn4n3)ccc2F)c(C)n1 | 199
COc1c(C#Cc2ccc(NS(C)(=O)=O)cc2C)cc(N2CCC(=O)NC2=O)cc1C(C)(C)C | > 280
CC(=O)C1CCC2C3CCC4CC(F)CCC4(C)C3CCC12C (configuration not stated) | 154 to 155
Cc1nc(-c2ccc(N3CCN(C)CC3)c([N+](=O)[O-])c2)sc1C(=O)O | 218 to 220
COc1cccc2[nH]c3c(c12)CC(N(C)C)CC3 (configuration not stated) | 185 to 189
CCc1cc(N(C=O)c2ccccc2)cc(CC)c1N(C(N)=S)C(C)(C)C | 160 to 162
Cc1c(C)c2c(c(C)c1O)CCC(C)(COc1ccc([N+](=O)[O-])cc1)O2 (configuration not stated) | 114 to 116
CCCCc1c(CO)ccc2c(OC)cccc12 | 100 to 102
COCCOc1ccc(/C=C/C(=O)NS(=O)(=O)NCCc2ccccc2)c(Oc2ncc(C(F)(F)F)cc2Cl)c1 | 85 to 85.5
Cc1ccc(-c2nc(C(=O)Nc3nnn[nH]3)c(C)s2)s1 | 278 to 280
CC(C)(C)c1cc(SC2(Sc3cc(C(C)(C)C)c(O)c(C(C)(C)C)c3)CCCCCC2)cc(C(C)(C)C)c1O | 144 to 146
CCN1CCNC(=O)c2ccc(Nc3ncc(Cl)c(Nc4ccccc4C(=O)NC)n3)cc21 | 168 to 171
NNC(=O)c1ccc2oc3ccccc3c2c1 | 216 to 218
O=C1C(CCO)Oc2ccc(C(F)(F)F)cc2N1Cc1cccc(Cl)c1 (configuration not stated) | 92 to 94
COCO[C@@H](C(=O)OC)[C@@H](Sc1ccccc1[N+](=O)[O-])c1ccc(OC)cc1 | 155 to 158

The next lines start with the values.

melting point [°C] | Compound
176 | CCOC(=O)c1cc(-c2ccc(Br)cc2)n(-c2ccc(S(C)(=O)=O)cc2)n1
215 to 218 | CN1CCN(c2ccc(-c3nc4c(N[C@H]5[C@@H](C(N)=O)[C@@H]6C=C[C@H]5C6)c(Br)cnc4[nH]3)cc2)CC1
52 to 53 | COCOc1ccc(C=O)c(O)c1
139 to 140 | CC(=O)NCC1CC1c1c(C)ccc2nn(C)cc12 (configuration not stated)
89 | N#Cc1ccc(C=O)c(SCCc2ccccc2)c1
228 to 230 | OCc1cc2c(cn1)[nH]c1ccccc12
> 250 | CNc1nc(Br)cc(S(=O)(=O)c2ccc(N)cc2)n1
194 to 198 | CCCCc1oc2ccccc2c1C(=O)Nc1ccc2cc(OCc3nn[nH]n3)ccc2c1
> 260 | COc1ccc(-n2c(=O)[nH]c3c(C(N)=O)nc(-c4cccc(O)c4)nc32)c(F)c1
86 | CNc1ccccc1CNC(=O)C1Cc2ccccc2N1S(=O)(=O)c1ccc(-c2cccc(C(F)(F)F)c2)cc1 (configuration not stated)
52 to 54 | O=C(CN1C(=O)CC1Sc1ccc(Cl)cc1)NCCCCCCc1ccccc1 (configuration not stated)
118 to 119 | CC(=O)c1ccc(S(=O)(=O)N2CCN(C)CC2)cc1
222 to 225 | O=c1cc(-c2ccccc2)n(-c2ccccc2)c(-c2ccccc2)c1C(F)(F)F
154 to 155 | CC(C)CN1C(=O)C(C)(C)C(=O)Nc2cc(C=O)ccc21
266 to 267 | COc1cc(OC)c2c(=O)[nH]c(-c3ccc(OC)c(-c4ccc(S(C)=O)cc4)n3)nc2c1 (configuration not stated)
129 to 130 | CCCc1oc(-c2ccccc2)nc1COc1ccc(COc2ccccc2CC(=O)O)cc1
162 | COc1cc(N)c(Cl)cc1C(=O)N[C@H]1CCN(CCCNc2nc3ccccc3s2)C[C@H]1OC (relative stereo)
134 to 135 | CCN(CC)C1=NC(NC(=O)CCCCc2ccccc2)C(=O)N(C)c2ccccc21 (configuration not stated)
110 to 111 | C=Cc1nc(NC)sc1-c1ccncc1
66 to 68 | CCCCCCOC(=O)CS(=O)(=O)Nc1c(C(C)C)cccc1C(C)C

melting point [°C] | Compound
104 to 108 | CCOC(=O)c1c(NC=CC(=O)C(C)C)sc(-c2ccccc2)c1C
183 to 184 | COc1ccc2[nH]c(SCc3cc(N)c(Br)cn3)nc2c1
146 to 149 | Fc1cc(/C=C/c2nc(COc3ccc(CCCCn4ccnn4)cc3)co2)ccc1Cl
148 to 149 | COc1ccc2c(Cc3ccco3)nnc(N3CCCC3)c2c1
154 to 157 | CCCCc1oc2ccccc2c1C(=O)NCc1ccc2c(Br)c(OCC#N)ccc2c1
149 | CC(O)=C(C#N)CC(=O)Nc1ccc(OCCCI)cc1
153 to 155 | COc1cc(C)nc(NC(=O)NS(=O)(=O)c2ccccc2C(O)CF)n1 (configuration not stated)
237 to 241 | O=C(NC(=O)c1c(F)cccc1F)Nc1ccc(-c2ccc(Cl)cc2)c(Cl)n1
182 to 184 | CS(=O)(=O)c1ccc(-c2cnn(Cc3ccccn3)c(=O)c2-c2ccc(F)cc2)cc1
232 to 234 | Cc1nn(C)c(-c2ccccc2)c1NC1=NCCN1
109 to 112 | CNC(=O)/C(=N/OC)c1ccccc1COc1ccccc1C
103 to 104 | CCOP(=O)(OCC)C(Nc1nccs1)P(=O)(OCC)OCC
221 | COC(=O)c1cn(-c2ccc(C3=NOC(NC(C)=O)C3)cc2F)nn1 (configuration not stated)
165 to 167 | Cc1cccc(S(=O)(=O)N2CCn3c(c(C(N)=O)c(Cl)c3-c3ccccc3)C2)c1
191 to 193 | Oc1cc(O)cc(Oc2nnn[nH]2)c1
209 to 210 | CSc1ccc(-c2coc3ncc(-c4nnc(C)o4)cc23)cc1
123 to 124 | OCCCOc1ccc(-c2ccccc2)cc1
221 | COC(=O)c1ccc(O)c(O)c1O
114 to 116 | COc1c(OCc2ccccc2)cnc(CNc2nc(C)nc(C)c2Cl)c1C
